# Measured values from PMC3502156, “Anti-plasmodial action of de novo-designed, cationic, lysine-branched, amphipathic, helical peptides” (Malaria Journal, 2012).
# Read-outs that look alike come from different tables or passages of the source. Starred links: 1 amine or outer side, 2 acyl side, 3 side chain; linkers in the order of their positions; H or OH if unused. Positions of bridges follow the written chain, without caps; N, C: chain ends. Non-standard residues stand in square brackets, D forms with d. Residues, ends and D or L forms follow the SMILES beside them. Chains are numbered I, II in the order given. X1 = O=C(/C(=C/c1ccccc1)N[*:1])[*:2]; X2 = O=C(C(=Cc1ccccc1)N[*:1])[*:2]
# Columns and labels:
# [1] = system: P. falciparum 3D7 (chloroquine-sensitive); assay: microbe, parasite or virus in culture; type: cell-based, Plasmodium falciparum
# Experimental: (§1) Chloroquine-sensitive (3D7) and CQ-resistant (Dd2 and INDO) strains of P. falciparum were maintained in continuous culture according to the method of Trager and Jensen with minor modifications. Cultures were maintained in fresh group O^+ve human erythrocytes suspended at 4% haematocrit in complete medium {16.2 g/L RPMI 1640 containing 25 mM HEPES, 11.11 mM glucose (Gibco), 0.2% sodium bicarbonate (Sigma), 0.5% Albumax I (Gibco), 45 μg/litre hypoxanthine (Sigma) and 50 μg/litre gentamicin (Gibco)} and incubated at 37°C under a gas mixture 5% O2, 5% CO2, and 90% N2. Every day, the spent medium was replaced by fresh complete medium to propagate the culture. […] Parasitaemia was monitored by microscopic examination of Giemsa-stained blood smears. Synchronized ring stage parasite was obtained by 5% sorbitol treatment. Trophozoites and schizont-stage parasites were enriched by using Percoll gradient.
# (§2) Stock solutions of peptides and CQ were prepared in water (milli-Q grade) while artemisinin stock solution was in dimethyl sulphoxide (DMSO). All stocks were then diluted with culture medium to achieve the required drug concentrations. The concentration of peptide solution in water was based on A280 [ϵ (M^-1 cm^-1) ΔF (didehydrophenylalanine) 19,000, W (Tryptophan) 5,000)]. Thus ϵ280 were 62,000, 124,000, 124,000 and 248,000 for ΔFm, (ΔFm)2, ΔFd and ΔFq respectively. The concentration of FITC-peptides was based on A495 [ϵ(M^-1 cm^-1) FITC 77,000 for (ΔFm)2 with one FITC and 154,000 for ΔFd with two FITC per molecule]. Drugs and peptides solutions were placed in 96-well flat bottom tissue culture grade plates (Corning).
# (§3) For drug screening, SYBR green I based fluorescence assay was used as described previously by Smilkstein et al.[30]. Sorbitol synchronized ring stage parasites (haematocrit: 2%, parasitaemia: 1%, 100 μl) under normal culture conditions were incubated in the absence or presence of increasing concentrations of peptides in water. CQ and artemisinin were used as positive controls. […] After 48 hr of incubation 100 μl of SYBR Green I buffer [0.2 μl of 10,000 X SYBR Green I (Invitrogen) per ml of lysis buffer {Tris (20 mM; pH 7.5), EDTA (5 mM), saponin (0.008%; wt/vol), and Triton X-100 (0.08%; vol/vol)}] was added to each well, mixed twice gently with multi-channel pipette and incubated in dark at 37 °C for 1 h. Fluorescence was measured with a Victor fluorescence multi-well plate reader (Perkin Elmer) with excitation and emission wavelength centred at 485 and 530 nm, respectively. Fluorescence counts for CQ (0.1 μM for 3D7, 1 μM for INDO) were subtracted from counts in each well. The fluorescence counts were plotted against the drug concentration and IC50 (the 50% inhibitory concentration) was determined by analysis of dose–response curves. Results of the above mentioned fluorescence-based assay were validated microscopically by examination of Giemsa-stained smears of peptide-treated parasite cultures. Statistical significance of relative potencies of peptides was determined by student’s T test.
# [2] = system: P. falciparum Dd2 (CQ-resistant); assay: microbe, parasite or virus in culture; type: cell-based, Plasmodium falciparum; details: for Resistance index IC50 Dd2/ IC50 3D7: IC50 CQ resistant strain/ IC50 CQ sensitive strain
# Experimental: as §1, §2, §3
# [3] = system: P. falciparum 3D7 (chloroquine-sensitive); assay: microbe, parasite or virus in culture; type: cell-based, Plasmodium falciparum; remark: listed apart in the source
# [4] = system: uninfected erythrocytes (URBC); assay: Haemolysis assay, uninfected red cells; type: cell-based, human
# Experimental: (§4) Selectivity of haemolysis by peptides for infected erythrocytes (PRBC) vs uninfected erythrocytes (URBC) was examined by incubating the test molecules with URBCs and PRBCs respectively in phosphate-buffered saline (PBS). Briefly, fresh RBCs were spin washed (1600 RPM; 5 min) three times in PBS and re-suspended in PBS at 2% haematocrit. A 100 μl suspension was added to 96-well plate containing the peptides at different concentrations. […] After incubation at 37°C for 3 hr, the samples were centrifuged and supernatant was used to determine the haemolytic activity measured in terms of haemoglobin release as monitored by […]. Triton-treated control samples were diluted 10-fold before reading absorbance. […] Percent haemolysis has been expressed with reference to 100% haemolysis value assigned to positive control (triton X 100 treated RBCs). To study haemolytic susceptibility of parasitized cells, URBCs were replaced with varying percentages (10% and 20%) of mixed stage parasitized cells. […] Haemolysis of parasitized erythrocytes was also monitored microscopically by examining the Giemsa-stained smears. Parasitaemia of ΔFd treated and untreated cultures were microscopically counted for ring, trophozoite and schizont stages respectively. Susceptibility of different stages was compared with corresponding untreated control cultures.
# [5] = system: infected erythrocytes (PRBC); assay: Haemolysis assay, parasitized red cells; type: cell-based, Plasmodium falciparum; details: up to 40 μM, 3 hr, A415
# Experimental: as §4
# [6] = system: Plasmodium-infected RBCs (PRBC); assay: Fluorescence microscopy of FITC-peptide localization; type: cell-based, Plasmodium falciparum; details: 2-3 μM, 30 min, 37°C, complete medium
# Experimental: For studying peptide localization, P. falciparum cultures were individually incubated with FITC-ΔFd (2 μM), FITC-(ΔFm)2 (2 μM) or FITC-Insulin (3 μM) a) alone and b) together with DAPI in complete medium at 37°C for 30 min and the cells were spin washed (1,600 RPM, 5 min) twice with 1 X PBS to reduce background fluorescence. The cells were smeared on a glass slide, and fluorescence was visualized by using the respective filter settings for FITC and DAPI.
# For studying the selectivity and route of transport of ΔFd into the red cell-resident malaria parasite, URBC and PRBC were incubated with FITC-ΔFd (4 μM) in parallel sets at 4°C vs at room temperature (25°C) for specified times and spin washed (1,600 RPM, 2 min) with complete medium (3 X 200 μl). The cells were smeared on a glass slide and both bright field images and fluorescence images (using FITC filter) were captured at 100 X magnification using Nikon eclipse fluorescence microscope. The software Adobe Photoshop was used to overlay the fluorescence image on the bright field image.
# [7] = 3D7 (chloroquine-sensitive, 48 h)
# [8] = ring stage synchronized, haematocrit 2%, parasitaemia 1%, 48 hr, SYBR Green I fluorescence, ± SD of three independent observations, read-out: IC50 P. falciparum 3D7
# [9] = 2% haematocrit in PBS, 37°C, 3 hr, haemoglobin release A415, 100% = 0.4% Triton X-100, ± SD of three independent observations
Molecule,"IC50 [1, 7]","IC50 ([2]; Dd2 (CQ-resistant, 48 h))",HC50 URBC ([4]; 3 h),Hemolytic Selectivity index (HC50 URBC/ IC50 Pf 3D7) ([4]; 3 h),other results
CC(=O)NCC(=O)NC(=Cc1ccccc1)C(=O)N[C@@H](CCCNC(=N)N)C(=O)N[C@@H](CCCCN)C(=O)NC(=Cc1ccccc1)C(=O)N[C@@H](Cc1c[nH]cn1)C(=O)N[C@@H](CCCCN)C(=O)NC(=Cc1ccccc1)C(=O)N[C@@H](Cc1c[nH]c2ccccc12)C(=O)N[C@@H](C)C(=O)N[C@@H](C)C(=O)NCC(=O)NC(=Cc1ccccc1)C(=O)N[C@@H](CCCNC(=N)N)C(=O)N[C@@H](CCCCN)C(=O)NC(=Cc1ccccc1)C(=O)N[C@@H](Cc1c[nH]cn1)C(=O)N[C@@H](CCCCN)C(=O)NC(=Cc1ccccc1)C(=O)N[C@@H](Cc1c[nH]c2ccccc12)C(=O)N[C@@H](C)C(N)=O [(ΔFm)2] (Ac-G[X2]RK[X2]HK[X2]WAAG[X2]RK[X2]HK[X2]WA-NH2),2.4 ± 0.15 µM,2.5 ± 0.13 µM,> 50 µM,> 20,"Resistance index IC50 Dd2/ IC50 3D7 [2]: 1.04; increment in potency at 96 hr (two cycles) vs 48 hr (one cycle) ([3]; P. falciparum 3D7, SYBR Green assay): 1.5 fold"
"Insulin: bovine insulin (Sigma), control peptide [reference compound]",,,,,"haemolysis of infected red cells by control peptides [5]: not to show any haemolysis; IC50 [1, 8]: > 40 µM; HC50 URBC [4, 9]: > 40 µM"
"I: Ac-G[X1]RK[X1]HK[X1]WAKK-NH2 / II: Ac-G[X1]RK[X1]HK[X1]WAK / III: Ac-G[X1]RK[X1]HK[X1]WA / IV: Ac-G[X1]RK[X1]HK[X1]WA (amide I:11-IV:C, I:12-II:C, II:11-III:C; N-terminus and C-terminus assumed) [ΔFq]",0.25 ± 0.02 µM,,2.5 ± 0.13 µM,10,
"CCN(CC)CCCC(C)Nc1ccnc2cc(Cl)ccc12 (stereo not drawn) [Chloroquine, reference compound]",,,,,"Resistance index IC50 Dd2/ IC50 3D7 [2]: 4; IC50 ([2]; Plasmodium falciparum, DD2, 48 h, read-out: IC50 P. falciparum Dd2): 0.16 µM; IC50 ([3]; Plasmodium falciparum, 3D7, 48 h, read-out: IC50 P. falciparum 3D7): 0.04 µM"
"C[C@H](NC(=O)[C@H](C)NC(=O)[C@H](CCCCN)NC(=O)[C@H](Cc1c[nH]cn1)NC(=O)[C@@H]1CCCN1C(=O)[C@H](CCC(=O)O)NC(=O)[C@@H](N)CCC(=O)O)C(=O)N[C@@H](CO)C(=O)N[C@@H](C)C(=O)N[C@@H](CCC(=O)O)C(=O)NCC(=O)N[C@@H](CCCCN)C(=O)N[C@@H](CCCCN)C(=O)O [Prochitinase, reference compound] (H-EEPHKAASAEGKK-OH)",> 40 µM,,> 40 µM,,
CC(=O)NCC(=O)N[C@@H](Cc1ccccc1)C(=O)N[C@@H](CCCNC(=N)N)C(=O)N[C@@H](CCCCN)C(=O)N[C@@H](Cc1ccccc1)C(=O)N[C@@H](Cc1c[nH]cn1)C(=O)N[C@@H](CCCCN)C(=O)N[C@@H](Cc1ccccc1)C(=O)N[C@@H](Cc1c[nH]c2ccccc12)C(=O)N[C@@H](C)C(N)=O [Fm] (Ac-GFRKFHKFWA-NH2),> 100 µM,> 100 µM,>100 µM,,
CC(=O)NCC(=O)NC(=Cc1ccccc1)C(=O)N[C@@H](CCCNC(=N)N)C(=O)N[C@@H](CCCCN)C(=O)NC(=Cc1ccccc1)C(=O)N[C@@H](Cc1c[nH]cn1)C(=O)N[C@@H](CCCCN)C(=O)NC(=Cc1ccccc1)C(=O)N[C@@H](Cc1c[nH]c2ccccc12)C(=O)N[C@@H](C)C(N)=O [ΔFm] (Ac-G[X2]RK[X2]HK[X2]WA-NH2),> 100 µM,> 100 µM,>100 µM,,
CC(=O)NCC(=O)N[C@@H](Cc1ccccc1)C(=O)N[C@@H](CCCNC(=N)N)C(=O)N[C@@H](CCCCN)C(=O)N[C@@H](Cc1ccccc1)C(=O)N[C@@H](Cc1c[nH]cn1)C(=O)N[C@@H](CCCCN)C(=O)N[C@@H](Cc1ccccc1)C(=O)N[C@@H](Cc1c[nH]c2ccccc12)C(=O)N[C@@H](C)C(=O)NCCCC[C@H](NC(=O)[C@H](C)NC(=O)[C@H](Cc1c[nH]c2ccccc12)NC(=O)[C@H](Cc1ccccc1)NC(=O)[C@H](CCCCN)NC(=O)[C@H](Cc1c[nH]cn1)NC(=O)[C@H](Cc1ccccc1)NC(=O)[C@H](CCCCN)NC(=O)[C@H](CCCNC(=N)N)NC(=O)[C@H](Cc1ccccc1)NC(=O)CNC(C)=O)C(N)=O [Fd] (I: Ac-GFRKFHKFWAK-NH2 / II: Ac-GFRKFHKFWA; amide I:11-II:C; N-terminus and C-terminus assumed),1.5 ± 0.08 µM,,> 50 µM,> 33,
"CC(C)C[C@H](NC(=O)[C@H](CCC(N)=O)NC(=O)[C@@H]1CCCN1C(=O)[C@H](CC(C)C)NC(=O)[C@H](CC(=O)O)NC(=O)[C@@H](NC(=O)[C@@H](NC(=O)[C@H](Cc1c[nH]cn1)NC(=O)[C@@H]1CCCN1C(=O)[C@H](CC(C)C)NC(=O)[C@@H]1CCCN1C(=O)[C@@H]1CCCN1C(=O)[C@H](C)NC(=O)[C@H](CO)NC(=O)[C@@H]1CCCN1C(=O)[C@H](CCCNC(=N)N)NC(=O)[C@@H](NC(=O)[C@H](C)NC(=O)CNC(=O)[C@H](CC(C)C)NC(=O)[C@@H]1CCCN1C(=O)[C@H](C)NC(=O)[C@H](CO)NC(=O)[C@H](Cc1c[nH]cn1)NC(=O)[C@H](CC(=O)O)NC(=O)[C@@H]1CCCN1C(=O)[C@@H]1CCCN1C(=O)[C@@H](N)CC(N)=O)[C@@H](C)O)C(C)C)C(C)C)C(=O)NCC(=O)N1CCC[C@H]1C(=O)O [E30, reference compound] (H-NPPDHSAPLGATRPSAPPLPHVVDLPQLGP-OH)",,,,,"haemolysis of infected red cells by control peptides [5]: not to show any haemolysis; IC50 [1, 8]: > 40 µM; HC50 URBC [4, 9]: > 40 µM"
"FITC-insulin: FITC-Insulin (Sigma), control for uptake",,,,,uptake of FITC-labelled peptide by parasitized cells [6]: no accumulation
